Measurements: paper PMC3332081, “Cysteamine Suppresses Invasion, Metastasis and Prolongs Survival by Inhibiting Matrix Metalloproteinases in a Mouse Model of Human Pancreatic Cancer” (PLoS ONE, 2012)

Key:
[1] = target: T1, MMP-12 (Homo sapiens, UniProt P39900); assay: fluorimetric MMP inhibitor profiling, MMP-12; type: biochemical; conditions: 30 minutes preincubation, fluorogenic substrate
T1 construct: purchased Enzo Life Science, Farmingdale, NY
Description: (§1) After administration of fluorogenic substrate, a velocity of fluorescent increase was measured using excitation/emission = 320/405 nm.

[2] = set-up: method as in PMID 11060801; conditions: cited from earlier work
[3] = system: MMPs; assay: fluorimetric MMP inhibitor profiling, span over all MMPs; type: biochemical; conditions: MMP-1, -2, -3, -7, -8, -9, -10, -12, -13, -14; read-out: IC50 against each MMP enzymatic activity (span over the MMPs)
Description: as §1

[4] = system: pancreatic cancer cell lines; assay: matrigel invasion assay; type: cell-based, human
Description: Cell invasion was assayed in BD BioCoat Matrigel invasion chambers (BD Biosciences; 24 wells, 8 µm pore size) as described previously. Briefly, cells were incubated with different concentrations of cysteamine (0–5 mM) for 24 hours. Non-invaded cells were removed from the upper surface of the membrane with a cotton swab, and cells on the lower surface of the membrane were fixed and stained with H&E. Three random fields per chamber were counted. Data were shown as mean ± S.D. of triplicate determinations.

[5] = system: pancreatic cancer cell lines; assay: cell migration (wound healing) assay; type: cell-based, human
Description: Cell migration assay is a classical wound healing assay. For this assay, cells were cultured in 10 cm petri dishes until they were completely confluent. Cell monolayers were scraped with a sterile yellow micropipette tip and washed with PBS three times; the cells were then cultured in medium containing 0–5 mM of cysteamine for 24 hours. Five random fields were selected and pictures were taken using an inverted microscope. The average area (mm^2) of the gap between the cell layers was calculated using IPLab imaging software (BD Biosciences-Bioimaging, Rockville, MD).

[6] = system: HS766T; assay: cell viability assay (trypan blue count), HS766T; type: cell-based, human; conditions: 24 and 48 hour treatment, viable cell count
Description: (§2) Cell viability of pancreatic cancer cell lines was measured by counting viable cell numbers. Briefly, 3×10^5 cells were seeded per well in a 6-well plate with 2.0 milliliter complete medium and incubated overnight for plating. The cells were treated with different concentrations of cysteamine for 24–48 hours. After incubation, cells were detached with trypsin, washed and stained with 0.4% trypan blue. Cell number was manually counted using a hemocytometer and presented as number of viable cells per milliliter.

[7] = system: MIA-PaCa2; assay: cell viability assay (trypan blue count), MIA-PaCa2; type: cell-based, human
Description: as §2

[8] = system: total MMPs activity in pancreatic cancer cell lines; assay: total MMPs activity in lysates of treated cells (fluorogenic substrate); type: cell-based, human; conditions: two representative pancreatic cancer cell lines, 0–5 mM, 24 hours
Description: (§3) MMPs activity was measured by Mca-KPLGL-Dpa-AR-NH2 Fluorogenic Peptide Substrate (R&D systems, Emeryville, CA). Total cell protein from each pancreatic cancer cell line was collected using lysis buffer (containing 50 mM Tris-HCl, 10 mM CaCl2, 0.05% Brij35 and 0.25% Triton-X) without an MMP inhibitor. Substrate and 10 µg of total cell protein in the buffer were mixed in a black-wall 96-well plate. After 1 hour incubation, fluorescence units were determined using excitation/emission = 320/405 nm.

[9] = system: MMP-9; assay: MMP-9 protein level in treated cells (ELISA); type: cell-based, human; conditions: 5 mM (highest concentration), 24 hours, both cell lines
Description: (§4) The MMP-9 protein level was determined using Human total MMP-9 DuoSet kit (R&D systems, Emeryville, CA) following the manufacturer's instruction. Ten microgram of total protein was aliquoted in each well and the MMP-9 concentration was determined by the colorimetric method.

[10] = system: MMP-9; assay: MMP-9 mRNA in treated cells (qRT-PCR); type: cell-based, human; conditions: 5 mM (highest concentration), 24 hours, both cell lines
Description: (§5) Quantitative reverse transcription-PCR (qRT-PCR) was performed as described previously using QuantiTect SYBR Green PCR Kits (QIAGEN, Valencia, CA). Gene specific primers for human MMP-9, MMP-12, MMP-14 and β-actin were either purchased from QIAGEN or synthesized at the CBER core facility. Gene expression was normalized to β-actin before the fold change in gene expression was determined.

[11] = system: MMP-12; assay: MMP-12 mRNA in treated cells (qRT-PCR); type: cell-based, human; conditions: 24 hours, highest concentration
Description: as §5

[12] = system: MMP-14; assay: MMP-14 mRNA in treated cells (qRT-PCR); type: cell-based, human; conditions: 24 hours, highest concentration
Description: as §5

[13] = system: MMP-9; assay: gelatin gel zymography of treated cells; type: cell-based, human; conditions: cell lysates after 24 hours
Description: (§6) Gelatin gel zymography was performed on cell lysates from HS7666 and MIA-PaCa2 pancreatic cancer cell line with or without culture with different concentration of cysteamine essentially as described by D'Angelo et al. Briefly, 50 µg of total protein was electrophoresed on 10% SDS-PAGE containing 0.1% gelatin as substrate. After washing with 1% Triton X-100 in 50 mM Tris/HCl, pH 7.5 for 1 hr to remove SDS, the gels were incubated overnight at 37 °C in 50 mM Tris/HCl, pH 7.5, containing 150 mM NaCl, 10 mM CaCl2 and 0.1% Triton X-100, prior to staining with simply blue safe stain. The gels were washed with deionized water at room temperature. […] Relevant band intensities were quantified by scanning densitometric analysis and normalized to cell number.

[14] = system: HS766T; assay: orthotopic pancreatic cancer model, HS766T; type: in vivo, nude nu/nu mice
Description: (§7) Female nude nu/nu mice between ages 5 and 6 weeks were maintained in a barrier facility in HEPA-filtered rack. All animal studies were conducted under approved protocol #2000–06 by the CBER Institutional Animal Care and Use Committee in accordance with the principles and procedures outlined in the NIH Guideline for the Care and Use of Laboratory Animals. For orthotopic tumor cell injection, the pancreas was carefully exposed, and 2.0×10^6 of MIA-PaCa2 and HS766T cells were injected into the organ. The pancreas was then returned to the peritoneal cavity, and the abdominal wall and skin were closed with skin clips,[30]. From day 4 after tumor implantation, increasing doses of cysteamine (0, 25, 100, or 250 mg/kg/day) were subcutaneously injected twice a day until the end of the experiment. At day 30, mice were sacrificed and the number of metastatic nodules visible by naked eye and whose sizes were >5 mm in diameter counted. The total weight of primary tumor and metastatic nodules were also measured. Pictures were taken immediately after sacrificing the animals. Additionally, mouse survival time was monitored in an independent experiment. Mice were sacrificed when they had severe ascites or cachexia. Mice in both tumor models were weighed at day 10 and day 25 after Cysteamine treatment.

[15] = system: MIA-PaCa2; assay: orthotopic pancreatic cancer model, MIA-PaCa2; type: in vivo, nude nu/nu mice
Description: as §7

[16] = safety in tumor-bearing mice (body weight, serum enzymes, histology); type: in vivo, nude nu/nu mice
Description: as §7
Mouse blood was collected from the tail vein. Serum levels of alanine aminotransferase (ALT), creatine kinase (CK), aldolase and creatinine (Cr) were measured using different kits obtained from Pointe Scientific, Inc. (Canton, MI) and Caldon Biotech, Inc. (Vista, Ca), following the manufacturer's instruction.

[17] = system: MMPs activity in primary orthotopic tumors (HS766T and MIA-PaCa2); assay: MMP activity in primary orthotopic tumors (fluorogenic substrate); type: in vivo, nude nu/nu mice; conditions: 100 and 250 mg/Kg, day 30
Description: as §3
(§8) When mice were sacrificed at day 30, primary tumors were collected. For extraction of total protein, the tumor was soaked with lysis buffer and homogenized using TissueRuptor (QIAGEN); the supernatant was collected. Total RNA was extracted using FastRNA pro green kit (MP Biomedicals, Solon, OH) following the manufacturer's instructions. MMP activity, gelatin hydrolyzing MMP activity and the mRNA and protein levels of MMP-9 were determined as mentioned above.

[18] = system: MMP-9; assay: MMP-9 mRNA in primary tumors (qRT-PCR); type: in vivo, nude nu/nu mice; conditions: tumors harvested at day 30
Description: as §5, §8

[19] = system: MMP-9; assay: MMP-9 protein in primary tumors (ELISA); type: in vivo, nude nu/nu mice; conditions: tumors harvested at day 30
Description: as §4, §8

[20] = system: MMP-9; assay: zymography of primary tumors; type: in vivo, nude nu/nu mice; conditions: tumors harvested at day 30
Description: as §6, §8

[21] = oral, every 6 hours at 60 to 90 mg/kg of body weight per day; cited from earlier work
[22] = cited from earlier work

T1 sequence (P39900 106-470): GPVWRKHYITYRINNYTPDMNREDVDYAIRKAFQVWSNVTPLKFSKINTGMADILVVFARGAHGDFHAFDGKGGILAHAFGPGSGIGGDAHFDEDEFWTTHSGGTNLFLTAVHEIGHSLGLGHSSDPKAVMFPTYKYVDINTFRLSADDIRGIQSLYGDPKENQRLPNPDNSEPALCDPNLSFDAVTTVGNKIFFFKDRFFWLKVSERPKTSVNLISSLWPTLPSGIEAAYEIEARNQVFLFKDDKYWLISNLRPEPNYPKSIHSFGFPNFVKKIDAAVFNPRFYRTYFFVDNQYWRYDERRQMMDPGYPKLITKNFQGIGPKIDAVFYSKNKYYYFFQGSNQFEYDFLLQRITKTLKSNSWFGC

## CNC(=O)[C@H](Cc1ccccc1)NC(=O)[C@H](CC(C)C)[C@H](CSc1cccs1)C(=O)NO [Batimastat]
[1]
  IC50: 12 nM
[2]
  oral bioavailability: poor oral bioavailability

## NCCS [Cysteamine]
[3]
  IC50: 38 to 460 µM
[4]; all 10 pancreatic cancer cell lines, 24 hours
  lowest concentration that significantly inhibited cell invasion: 0.05 mM
[4]; in vitro
  concentration that sufficiently inhibited cancer cell invasion in vitro: 50 µM
[5]; all 10 cell lines, 24 hours
  concentration at which cell migration was significantly inhibited: ≥ 0.05 mM
[5]; in vitro
  concentration that sufficiently inhibited cancer cell migration in vitro: 50 µM
[6]
  concentration showing cell toxicity: > 12.5 mM
[7]; MIA-PaCa2, 24 and 48 hour treatment, viable cell count
  concentration showing cell toxicity: > 12.5 mM
[7]; cells not named in the abstract, viability tested in MIA-PaCa2
  concentrations that caused no toxicity to cells (abstract): < 25 mM
[8]
  total MMP activity in treated cells: inhibited MMP activity
[9]
  MMP-9 protein level: modestly increased
[10]
  MMP-9 mRNA level: modestly increased
[11]
  MMP-12 mRNA: modest increase
[12]
  MMP-14 mRNA: modest increase
[13]
  zymographic gelatin hydrolyzing activity, pro and active MMP-9: decreased significantly in a dose dependent manner
[14]; 250mg/kg s.c., day 30, lesions ≥ 5 mm, average of 5 mice
  HS766T metastasis number, average: 3.6
[14]; 250 mg/kg/day s.c., day 30, versus control
  decrease of the number of metastases of HS766T tumor: ~90%
[14]; HS766T model, 100 and 250 mg/kg/day
  development of ascites: no mice developed ascites
[14]; HS766T model, Kaplan-Meier, s.c. twice a day from day 4
  dose at which mouse survival time was significantly prolonged: ≥ 100 mg/kg/day
[14]; HS766T model, day 30
  size and weight of the primary tumors, control versus treated groups: did not show any difference
[15]; MIA-PaCa2 model, 100 and 250 mg/kg/day
  development of ascites: no mice developed ascites
[15]; MIA-PaCa2 model, Kaplan-Meier, s.c. twice a day from day 4
  dose at which mouse survival time was significantly prolonged: ≥ 100 mg/kg/day
[15]; MIA-PaCa2 model, day 30
  size and weight of the primary tumors, control versus treated groups: did not show any difference
[15]; highest dose (250 mg/kg/day) s.c., day 30, versus control
  decrease of the total weight of metastatic nodules of MIA-PaCa2 tumor: ~90%
[16]; liver, kidney, brain, heart, lung, day 30
  organ toxicity by histological examination: no organ toxicity was detected
[16]; mice, s.c.
  dose tolerated without visible, biochemical or histological evidence of toxicity: up to 250 mg/kg/day
[16]; mouse, in vivo
  serum alanine aminotransferase (ALT): no significant differences
  serum aldolase: no significant differences
  serum creatine kinase (CK): no significant differences
  serum creatinine (Cr): no significant differences
[17]
  MMPs activity in primary orthotopic tumors: decreased MMPs activity
[18]
  MMP-9 mRNA level in primary tumors: did not affect
[19]
  MMP-9 protein level in primary tumors: did not affect
[20]
  zymography for MMP-9, gelatinase activity in tumors: dose dependent decrease in gelatinase activity
[21]
  cysteamine plasma level: ~50 µM
[22]
  adverse effects in subjects: only gastrointestinal symptoms

## CNC(=O)[C@@H](NC(=O)[C@H](CC(C)C)[C@H](O)C(=O)NO)C(C)(C)C [marimastat]
[22]; higher dosage, patients with breast cancer metastasis
  clinical toxicity: high musculoskeletal toxicities
